{"source": "patent US20130122113A1", "about": "“ANTITUMORAL COMBINATION COMPRISING OMBRABULIN, A TAXANE DERIVATIVE AND A PLATINUM DERIVATIVE” (SANOFI, priority 2010, published 2013)", "key": {"clinical": {"assay": "clinical", "method": "Blood samples for pharmacokinetic analysis were obtained from all patients on Day 1, 2 and 3 at Cycle 1.\nA series of 2-mL blood samples were collected in heparinized (lithium heparinate) tubes as follows: • immediately prior to the end of infusion; • at 5, 10, 25, 45 and 60 minutes post infusion; • at 2, 4, 6, 8, 10 and 24 hours post infusion (i.e a total of 24 mL of blood)."}, "[1]": {"assay": "Phase I dose escalation study of ombrabulin with platinum salts and taxanes every 3 weeks: DLT, MAD, RD, TEAE", "type": "in vivo, patients", "method": "Dose Limiting Toxicity (DLT) at cycle 1.\nTwo groups of patients will be treated: one with docetaxel-cisplatin doublet (group 1) and the second with paclitaxel-carboplatin doublet (group 2), both in combination with ombrabulin.\nThe combination will be started with the following schedule (schedule A) for group 1:\nDay 1: ombrabulin as a 30 minutes i.v. infusion immediately followed by 120 minutes i.v. infusion of cisplatin, and\nDay 2: docetaxel administered as a 60 minutes i.v. infusion 24 hours apart ombrabulin infusion end and for the first 4 dose levels (I, II, III, IV).\nCohorts of 3 or 6 patients will receive escalating doses of ombrabulin (15.5, 20 and 25 mg/m^2) with a fixed dose of cisplatin at 75 mg/m^2 on Day 1, followed by docetaxel on Day 2, given either at 60 mg/m^2 for the ombrabulin doses of 15.5 and 20 mg/m^2 or at 75 mg/m^2 for the ombrabulin doses of 20 and 25 mg/m^2.\nTaking into consideration the recommended dose of the combination ombrabulin and cisplatin administered the same day (25 mg/m^2 and 75 mg/m^2 respectively) every 3 weeks, after dose level IV, even if MAD not reached at this dose level, dose escalation of ombrabulin will be stopped and the combination will be administered with the following schedule (schedule B) in the 2 groups:\nDay 1: ombrabulin as a 30 minutes i.v. infusion, and\nGroup 1: docetaxel administered as a 60 minutes i.v. infusion followed by cisplatin as a 120 minutes i.v. infusion, 24 hours apart ombrabulin infusion end.\nGroup 2: paclitaxel administered as a 180 minutes i.v. infusion followed by carboplatin as a 30 minutes i.v. infusion, 24 hours apart ombrabulin infusion end.\nCohorts of 3 or 6 patients will be screened and treated at each dose level. When the first three patients of a cohort have completed the first cycle, i.e. should have received at least one treatment course and should have been observed for acute toxicity for at least a 3-week follow-up period (or shorter period provided that a DLT has been observed), dose escalation strategy will be as follows: […]"}, "[2]": {"conditions": "cited from earlier work"}, "[3]": {"conditions": "ombrabulin 15.5 mg/m^2, 3 patients, cycle 1, mean (CV)"}, "[4]": {"conditions": "ombrabulin 20 mg/m^2, 26 patients, cycle 1, mean (CV)"}, "[5]": {"conditions": "ombrabulin 25 mg/m^2, 12 patients, cycle 1, mean (CV)"}, "[6]": {"conditions": "ombrabulin 30 mg/m^2, 6 patients, cycle 1, mean (CV)"}, "[7]": {"conditions": "ombrabulin 35 mg/m^2, 5 patients, cycle 1, mean (CV)"}, "[8]": {"conditions": "ombrabulin, Overall (15.5-35 mg/m^2), 52 patients, cycle 1, mean (CV)"}, "[9]": {"conditions": "ombrabulin, Overall (15.5-35 mg/m^2), 52 patients, cycle 1, mean (CV), listed as Ombrabulin"}}}
{"smiles": "COc1ccc(/C=C\\c2cc(OC)c(OC)c(OC)c2)cc1N", "note": "[ombrabulin metabolite, (Z)-1-(3-amino-4-methoxyphenyl)-2-(3,4,5-trimethoxyphenyl)ethene]", "values": [{"measurement": "Metabolite exposure relative to ombrabulin", "setting": "clinical; human, in vivo", "value": "about 2 fold"}]}
{"smiles": "COc1ccc(/C=C\\c2cc(OC)c(OC)c(OC)c2)cc1NC(=O)[C@@H](N)CO", "note": "[ombrabulin, (Z)-N-[2-methoxy-5-[2-(3,4,5-trimethoxyphenyl)vinyl]phenyl]-L-serinamide]", "values": [{"measurement": "maximum administered dose", "setting": "[1]; Cohort II: Ob d1, C75/D75 d2, 19 pts", "value": 35, "unit": "mg/m^2"}, {"measurement": "maximum administered dose", "setting": "[1]; Cohort III: Ob d1, CbAUC5/P175 d2, 18 pts", "value": 35, "unit": "mg/m^2"}, {"measurement": "maximum administered dose", "setting": "[1]; Cohort IV: Ob d1, CbAUC6/P200 d2, 19 pts", "value": 35, "unit": "mg/m^2"}, {"measurement": "AUC", "setting": "clinical; human, in vivo, 15.5 mg/m2", "value": 276, "unit": "ng·h/mL"}, {"measurement": "AUC(0-t)", "setting": "clinical; human, in vivo, 15.5 mg/m2", "value": 274, "unit": "ng·h/mL"}, {"measurement": "Cmax", "setting": "clinical; human, in vivo, 15.5 mg/m2", "value": 712, "unit": "ng/mL"}, {"measurement": "Tmax", "setting": "clinical; human, in vivo, 15.5 mg/m2", "value": 28.8, "unit": "min"}, {"measurement": "AUC", "setting": "clinical; human, in vivo, 20 mg/m2", "value": 353, "unit": "ng·h/mL"}, {"measurement": "AUC(0-t)", "setting": "clinical; human, in vivo, 20 mg/m2", "value": 351, "unit": "ng·h/mL"}, {"measurement": "Cmax", "setting": "clinical; human, in vivo, 20 mg/m2", "value": 861, "unit": "ng/mL"}, {"measurement": "Tmax", "setting": "clinical; human, in vivo, 20 mg/m2", "value": 28.8, "unit": "min"}, {"measurement": "AUC", "setting": "clinical; human, in vivo, 25 mg/m2", "value": 383, "unit": "ng·h/mL"}, {"measurement": "AUC(0-t)", "setting": "clinical; human, in vivo, 25 mg/m2", "value": 381, "unit": "ng·h/mL"}, {"measurement": "Cmax", "setting": "clinical; human, in vivo, 25 mg/m2", "value": 973, "unit": "ng/mL"}, {"measurement": "Tmax", "setting": "clinical; human, in vivo, 25 mg/m2", "value": 29.4, "unit": "min"}, {"measurement": "AUC", "setting": "clinical; human, in vivo, 30 mg/m2", "value": 510, "unit": "ng·h/mL"}, {"measurement": "AUC(0-t)", "setting": "clinical; human, in vivo, 30 mg/m2", "value": 508, "unit": "ng·h/mL"}, {"measurement": "Cmax", "setting": "clinical; human, in vivo, 30 mg/m2", "value": 1170, "unit": "ng/mL"}, {"measurement": "Tmax", "setting": "clinical; human, in vivo, 30 mg/m2", "value": 32.4, "unit": "min"}, {"measurement": "AUC", "setting": "clinical; human, in vivo, 35 mg/m2", "value": 493, "unit": "ng·h/mL"}, {"measurement": "AUC(0-t)", "setting": "clinical; human, in vivo, 35 mg/m2", "value": 491, "unit": "ng·h/mL"}, {"measurement": "Cmax", "setting": "clinical; human, in vivo, 35 mg/m2", "value": 1270, "unit": "ng/mL"}, {"measurement": "Tmax", "setting": "clinical; human, in vivo, 35 mg/m2", "value": 30, "unit": "min"}, {"measurement": "half-life", "setting": "clinical; human, in vivo, t1/2Z (terminal elimination half-life), ombrabulin, Overall (15.5-35 mg/m^2), 52 patients, cycle 1, mean (CV)", "value": 17, "unit": "min"}, {"measurement": "conversion to its active metabolite", "setting": "clinical; in patients after i.v. infusion", "value": "rapidly converted"}, {"measurement": "Vss", "setting": "clinical; [3]", "value": "18.2 (32) L/m^2"}, {"measurement": "t1/2Z", "setting": "clinical; [3]", "value": "20.9 (76) min"}, {"measurement": "CL", "setting": "clinical; [4]", "value": "64.6 (42) L/h/m^2"}, {"measurement": "Vss", "setting": "clinical; [4]", "value": "22.0 (57) L/m^2"}, {"measurement": "t1/2Z", "setting": "clinical; [4]", "value": "17.7 (50) min"}, {"measurement": "CL", "setting": "clinical; [5]", "value": "80.1 (49) L/h/m^2"}, {"measurement": "Vss", "setting": "clinical; [5]", "value": "27.2 (76) L/m^2"}, {"measurement": "t1/2Z", "setting": "clinical; [5]", "value": "15.3 (37) min"}, {"measurement": "CL", "setting": "clinical; [6]", "value": "63.4 (33) L/h/m^2"}, {"measurement": "Vss", "setting": "clinical; [6]", "value": "24.3 (37) L/m^2"}, {"measurement": "t1/2Z", "setting": "clinical; [6]", "value": "18.5 (65) min"}, {"measurement": "CL", "setting": "clinical; [7]", "value": "95.7 (63) L/h/m^2"}, {"measurement": "Vss", "setting": "clinical; [7]", "value": "32.8 (78) L/m^2"}, {"measurement": "t1/2Z", "setting": "clinical; [7]", "value": "14.3 (28) min"}, {"measurement": "CL", "setting": "clinical; [8]", "value": "72.9 (23) L/h/m^2"}, {"measurement": "Vss", "setting": "clinical; [8]", "value": "25.0 (33) L/m^2"}, {"measurement": "t1/2Z (terminal elimination half-life)", "setting": "clinical; [8]", "value": "17.3 (15) min"}, {"measurement": "CL", "setting": "clinical; [9]", "value": 72.9, "unit": "L/h/m^2"}, {"measurement": "Vss", "setting": "clinical; [9]", "value": 25.0, "unit": "L/m^2"}, {"measurement": "recommended dose in monotherapy", "setting": "[2]; ombrabulin monotherapy", "value": 50, "unit": "mg/m^2"}, {"measurement": "recommended dose of ombrabulin in combination with cisplatin", "setting": "[2]; with cisplatin 75 mg/m^2 administered the same day, every 3 weeks", "value": 25, "unit": "mg/m^2"}, {"measurement": "recommended dose of ombrabulin in bi-therapy with docetaxel", "setting": "[2]; with docetaxel 75 mg/m^2, on-going phase I trial", "value": 35, "unit": "mg/m^2"}]}
